{"source": "paper PMC12785453", "about": "“Oral Fluid Concentrations and Pharmacological Effects of Clephedrone and Methylone in Humans” (International Journal of Molecular Sciences, 2025)", "test_system": "healthy male participants", "test": "Subjective effects, VESSPA-SSE, methylone trial", "format": "in vivo, humans", "details": "150 or 200 mg oral", "procedure": "Methylone pharmacology was evaluated in a study designed as a randomized, double-blind, placebo-controlled, crossover clinical trial. Four pilot studies were conducted administering methylone at oral doses of 50 (n = 3), 100 (n = 6), 150 (n = 5), and 200 mg (n = 7). Participants attended 3 experimental sessions separated by a one-week wash-out period and received two doses of methylone (one dose per experimental session) compared to placebo, except in the last pilot study in which participants received one dose of methylone, compared to MDMA and placebo. However, in this manuscript, only the results corresponding to the highest methylone doses (n = 12; 150 and 200 mg; mean dose = 179.2 mg) are presented, to enable comparison with clephedrone self-administration. Participants were recruited by word of mouth in the volunteer database of the clinical pharmacology unit.\nMethylone hydrochloride of high purity in powder form was acquired from LGC Standards (Teddington, UK) for the controlled study. The Pharmacy Department of the Hospital Universitari Germans Trias i Pujol was responsible for manufacturing, storing, and dispensing identical and opaque soft gelatin capsules containing 50 mg of methylone or a placebo (maltodextrin). Treatment consisted of 5 capsules that combined methylone and/or a placebo to reach the target dose. Details can be found in the previous article.\nSubjective effects were evaluated with visual analog scales (VAS), the short form of the Addiction Research Center Inventory (ARCI), and the Evaluation of Subjective Effects of Substances with Abuse Potential questionnaire (VESSPA-SSE). In addition, the Sensitivity to Drug Reinforcement Questionnaire (SDRQ) and a pharmacological identification class questionnaire were used in the controlled study administering methylone.\nThe VESSPA-SSE questionnaire, used to evaluate the subjective effects of stimulant drugs, The questionnaire includes 36-items and consists of six subscales that measure sedation (S), psychosomatic anxiety (ANX), changes in perception (CP), pleasure and sociability (SOC), activity and energy (ACT), and psychotic symptoms (PS).\nParticipants included in the naturalistic clephedrone study completed VAS at baseline, 0.50, 1, 1.5, 2, 3, 4, and 5 h, and ARCI and VESSPA at baseline, 1, 2, 3, 4, and 5 h after self-administering clephedrone. In the controlled study, VAS was performed at baseline and 0.25, 0.50, 0.75, 1, 1.5, 2, 3, 4, 6, 8, 10, and 24 h, and ARCI and VESSPA at baseline and 1, 2, 3, 4, 6, 8, and 10 h after administering methylone. Participants completed SDRQ and VAS sexual desire and arousal at baseline, 1 and 10 h, and the pharmacological class identification questionnaire at 8 h.\nFor statistical analysis, values of physiological (SBP, DBP, HR, and T) and subjective effects (VAS, ARCI, and VESSPA-SSE) were baseline–adjusted. Maximum effects (Emax) and the time needed to reach maximum effects (Tmax) were determined, and the area under the curve up to 5 h (AUC0–5h) for clephedrone and up to 6 h (AUC0–6h) for methylone was calculated using the trapezoidal rule. Emax and AUC values are presented as mean ± standard deviation, whereas Tmax is presented in median (range).\nTo find possible significant changes through the time course compared to baseline, a Dunnett multiple comparison test was carried out to compare each time point with baseline in both drug conditions. For clephedrone the comparisons were 0–0.5 h, 0–1 h, 0–1.5 h, 0–2 h, 0–3 h, 0–4 h and 0–5 h, and for methylone this analysis included 0–0.25 h, 0–0.5 h, 0–0.75 h, 0–1 h, 0–1.5 h, 0–2 h, 0–3 h, 0–4 h and 0–6 h. Given their different study designs, no comparative analysis between the time courses of both synthetic cathinones was conducted."}
{"smiles": "CNC(C)C(=O)c1ccc2c(c1)OCO2", "note": "(stereo not drawn) [Methylone, 3,4-methylenedioxy-N-methylcathinone]", "values": [{"measurement": "Tmax of VESSPA subscales", "result": 1, "unit": "h"}, {"measurement": "VESSPA ANX (psychosomatic anxiety) Emax", "setting": "n=12", "result": "0.92 ± 0.51", "unit": "points"}, {"measurement": "VESSPA CP (changes in perception) Emax", "setting": "n=12", "result": "0.00 ± 0.00", "unit": "points"}, {"measurement": "VESSPA CP (changes in perception) Tmax", "setting": "n=12", "result": "0.0 (0.0–0.0) h"}, {"measurement": "VESSPA S (sedation) Emax", "setting": "n=12", "result": "0.56 ± 0.59", "unit": "points"}, {"measurement": "VESSPA SOC (pleasure and sociability) Emax", "setting": "n=12", "result": "1.24 ± 1.56", "unit": "points"}, {"measurement": "VESSPA-ACT (activity and energy) Emax", "setting": "n=12", "result": "0.82 ± 0.84", "unit": "points"}, {"measurement": "VESSPA-PS (psychotic symptoms) Emax", "setting": "n=12", "result": "0.06 ± 0.11", "unit": "points"}, {"measurement": "VESSPA SOC (pleasure and sociability) Emax", "setting": "n=12, listed as methylone", "result": "higher than 1 points"}, {"measurement": "VESSPA ANX (psychosomatic anxiety) AUC0-5/6 h", "setting": "AUC0–6h, n=12", "result": "2.51 ± 2.22", "unit": "points·h"}, {"measurement": "VESSPA CP (changes in perception) AUC0-5/6 h", "setting": "AUC0–6h, n=12", "result": "0.00 ± 0.00", "unit": "points·h"}, {"measurement": "VESSPA S (sedation) AUC0-5/6 h", "setting": "AUC0–6h, n=12", "result": "1.39 ± 1.96", "unit": "points·h"}, {"measurement": "VESSPA SOC (pleasure and sociability) AUC0-5/6 h", "setting": "AUC0–6h, n=12", "result": "1.63 ± 2.13", "unit": "points·h"}, {"measurement": "VESSPA-ACT (activity and energy) AUC0-5/6 h", "setting": "AUC0–6h, n=12", "result": "1.02 ± 1.08", "unit": "points·h"}, {"measurement": "VESSPA-PS (psychotic symptoms) AUC0-5/6 h", "setting": "AUC0–6h, n=12", "result": "0.10 ± 0.24", "unit": "points·h"}]}
